Data reported in ChEMBL document CHEMBL1201862, “PubChem BioAssay data set” (2004).
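Compound exposure: 48 hours, 5 concentrations, 96-well plates. GI50 = concentration required for 50% inhibition of growth.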 Calls of active or inactive are those of the source. Cut-off read from the data, not from the text of the source: active = GI50 up to about 1.1 µM and inactive = higher.

What was measured:
Test in all cases: NCI tumour cell line growth inhibition, 48 h
[1] = tested on: SK-MEL-2
[2] = tested on: T47D
[3] = tested on: IGROV-1
[4] = tested on: EKVX
[5] = tested on: MDA-MB-231
[6] = tested on: HT-29
[7] = tested on: SNB-19
[8] = tested on: NCI-H226
[9] = tested on: OVCAR-8
[10] = tested on: NCI-H23
[11] = tested on: HCC 2998
[12] = tested on: SF-268
[13] = tested on: SR
[14] = tested on: PC-3
[15] = tested on: CAKI-1
[16] = tested on: MCF7
[17] = tested on: UACC-62
[18] = tested on: SF-295
[19] = tested on: SNB-75
[20] = tested on: K562
[21] = tested on: Hs-578T
[22] = tested on: MDA-MB-435
[23] = tested on: UACC-257
[24] = tested on: Malme-3M
[25] = tested on: OVCAR-4
[26] = tested on: SK-MEL-5
[27] = tested on: OVCAR-5
[28] = tested on: M14
[29] = tested on: 786-0
[30] = tested on: OVCAR-3
[31] = tested on: DU-145
[32] = tested on: SN12C
[33] = tested on: SK-MEL-28
[34] = tested on: HOP-62
[35] = tested on: LOX IMVI
[36] = tested on: RXF 393
[37] = tested on: SK-OV-3
[38] = tested on: MOLT-4
[39] = tested on: UO-31
[40] = tested on: NCI/ADR-RES
[41] = tested on: SF-539
[42] = tested on: CCRF-CEM
[43] = tested on: U-251
[44] = tested on: HCT-116
[45] = tested on: KM12
[46] = tested on: HCT-15
[47] = tested on: NCI-H460
[48] = tested on: TK-10
[49] = tested on: NCI-H522
[50] = tested on: A498
[51] = tested on: MDA-N
[52] = tested on: RPMI-8226
[53] = tested on: HL-60
[54] = tested on: COLO 205
[55] = tested on: HOP-92
[56] = tested on: A549
[57] = tested on: ACHN
[58] = tested on: SW-620
[59] = tested on: BT-549

Structure (SMILES): CN(C)CC1CCC/C(=C\c2ccc(OC(=O)/C=C/c3ccc(Cl)cc3)cc2)C1=O (stereo not drawn)
- GI50 [1]: 9.82 µM (inactive)
- GI50 [2]: 1.15 µM (inactive)
- GI50 [3]: 1.43 µM (inactive)
- GI50 [4]: 7.14 µM (inactive)
- GI50 [5]: 5.21 µM (inactive)
- GI50 [6]: 2.07 µM (inactive)
- GI50 [7]: 8.43 µM (inactive)
- GI50 [8]: 11 µM (inactive)
- GI50 [9]: 5.62 µM (inactive)
- GI50 [10]: 6.65 µM (inactive)
- GI50 [11]: 5.43 µM (inactive)
- GI50 [12]: 4.09 µM (inactive)
- GI50 [13]: 1.09 µM (active)
- GI50 [14]: 5.35 µM (inactive)
- GI50 [15]: 2.62 µM (inactive)
- GI50 [16]: 1.08 µM (active)
- GI50 [17]: 8.81 µM (inactive)
- GI50 [18]: 7.6 µM (inactive)
- GI50 [19]: 8.93 µM (inactive)
- GI50 [20]: 1.23 µM (inactive)
- GI50 [21]: 4.92 µM (inactive)
- GI50 [22]: 5.28 µM (inactive)
- GI50 [23]: 11.5 µM (inactive)
- GI50 [24]: 9.06 µM (inactive)
- GI50 [25]: 12.5 µM (inactive)
- GI50 [26]: 2.16 µM (inactive)
- GI50 [27]: 16.7 µM (inactive)
- GI50 [28]: 6.1 µM (inactive)
- GI50 [29]: 1.07 µM (active)
- GI50 [30]: 4.97 µM (inactive)
- GI50 [31]: 5.2 µM (inactive)
- GI50 [32]: 3.92 µM (inactive)
- GI50 [33]: 6.14 µM (inactive)
- GI50 [34]: 6.25 µM (inactive)
- GI50 [35]: 1.58 µM (inactive)
- GI50 [36]: 1.32 µM (inactive)
- GI50 [37]: 21.3 µM (inactive)
- GI50 [38]: 1.05 µM (active)
- GI50 [39]: 4.99 µM (inactive)
- GI50 [40]: 7.43 µM (inactive)
- GI50 [41]: 2.57 µM (inactive)
- GI50 [42]: 1.06 µM (active)
- GI50 [43]: 3.13 µM (inactive)
- GI50 [44]: 3.56 µM (inactive)
- GI50 [45]: 1.47 µM (inactive)
- GI50 [46]: 2.01 µM
- GI50 [47]: 8.02 µM (inactive)
- GI50 [48]: 1.31 µM (inactive)
- GI50 [49]: 0.916 µM (active)
- GI50 [50]: 8.53 µM (inactive)
- GI50 [51]: 6.9 µM (inactive)
- GI50 [52]: 0.294 µM (active)
- GI50 [53]: 1.07 µM (active)
- GI50 [54]: 0.78 µM (active)
- GI50 [55]: 1.57 µM (inactive)
- GI50 [56]: 8.49 µM (inactive)
- GI50 [57]: 2.43 µM (inactive)
- GI50 [58]: 1.69 µM (inactive)
- GI50 [59]: 0.217 µM (active)

Structure (SMILES): S=c1sscc1N1CCSc2ssc(=S)c21
- GI50 [1]: 78.2 µM (inactive)
- GI50 [2]: 20.8 µM (inactive)
- GI50 [3]: 21.1 µM (inactive)
- GI50 [4]: 16.6 µM (inactive)
- GI50 [5]: 30.1 µM (inactive)
- GI50 [6]: > 100 µM (inactive)
- GI50 [7]: 18.8 µM (inactive)
- GI50 [8]: 67.8 µM (inactive)
- GI50 [9]: 4.66 µM (inactive)
- GI50 [10]: 19.9 µM (inactive)
- GI50 [11]: > 100 µM (inactive)
- GI50 [12]: 35.9 µM (inactive)
- GI50 [13]: > 100 µM (inactive)
- GI50 [14]: 48.1 µM (inactive)
- GI50 [15]: > 100 µM (inactive)
- GI50 [16]: 32.7 µM (inactive)
- GI50 [17]: 67.1 µM (inactive)
- GI50 [19]: 14.5 µM (inactive)
- GI50 [20]: > 100 µM (inactive)
- GI50 [21]: 88.1 µM (inactive)
- GI50 [22]: > 100 µM (inactive)
- GI50 [23]: > 100 µM (inactive)
- GI50 [24]: > 100 µM (inactive)
- GI50 [25]: 7.45 µM (inactive)
- GI50 [26]: > 100 µM (inactive)
- GI50 [27]: > 100 µM (inactive)
- GI50 [28]: > 100 µM (inactive)
- GI50 [29]: 33.7 µM (inactive)
- GI50 [31]: 21.8 µM (inactive)
- GI50 [32]: 25.8 µM (inactive)
- GI50 [33]: > 100 µM (inactive)
- GI50 [35]: 28.4 µM (inactive)
- GI50 [36]: 47.3 µM (inactive)
- GI50 [38]: > 100 µM (inactive)
- GI50 [39]: 29.9 µM (inactive)
- GI50 [40]: 28.4 µM (inactive)
- GI50 [41]: 42.3 µM (inactive)
- GI50 [42]: > 100 µM (inactive)
- GI50 [43]: 13.8 µM (inactive)
- GI50 [44]: 87.1 µM (inactive)
- GI50 [45]: > 100 µM (inactive)
- GI50 [46]: 47.5 µM
- GI50 [47]: > 100 µM (inactive)
- GI50 [48]: 24.8 µM (inactive)
- GI50 [49]: 19.8 µM (inactive)
- GI50 [50]: 32.1 µM (inactive)
- GI50 [51]: > 100 µM (inactive)
- GI50 [52]: > 100 µM (inactive)
- GI50 [53]: > 100 µM (inactive)
- GI50 [54]: > 100 µM (inactive)
- GI50 [55]: 8.36 µM (inactive)
- GI50 [56]: 48.6 µM (inactive)
- GI50 [57]: 30.5 µM (inactive)
- GI50 [58]: > 100 µM (inactive)
- GI50 [59]: 37 µM (inactive)

Structure (SMILES): CCc1nc(N)nc(N)c1-c1ccc(N(C)Cc2ccccc2)c([N+](=O)[O-])c1
- GI50 [1]: 7.74 µM (inactive)
- GI50 [2]: 1.71 µM (inactive)
- GI50 [3]: 0.128 µM (active)
- GI50 [4]: 1.16 µM (inactive)
- GI50 [5]: 7.67 µM (inactive)
- GI50 [6]: 0.0191 µM (active)
- GI50 [7]: 0.745 µM (active)
- GI50 [8]: 3.31 µM (inactive)
- GI50 [9]: 0.0466 µM (active)
- GI50 [10]: 0.0708 µM (active)
- GI50 [11]: 0.345 µM (active)
- GI50 [12]: 0.303 µM (active)
- GI50 [13]: 0.0187 µM (active)
- GI50 [14]: 0.0557 µM (active)
- GI50 [15]: 0.0706 µM (active)
- GI50 [16]: 0.202 µM (active)
- GI50 [17]: 0.0357 µM (active)
- GI50 [18]: 0.0522 µM (active)
- GI50 [19]: 2.22 µM (inactive)
- GI50 [20]: < 0.01 µM (active)
- GI50 [21]: 10.2 µM (inactive)
- GI50 [22]: 0.0811 µM (active)
- GI50 [23]: 2.58 µM (inactive)
- GI50 [24]: 2.22 µM (inactive)
- GI50 [25]: 5.15 µM (inactive)
- GI50 [26]: 0.022 µM (active)
- GI50 [27]: 8.17 µM (inactive)
- GI50 [28]: 0.064 µM (active)
- GI50 [29]: 0.0231 µM (active)
- GI50 [30]: 0.697 µM (active)
- GI50 [31]: 0.215 µM (active)
- GI50 [32]: 1.34 µM (inactive)
- GI50 [33]: 4.79 µM (inactive)
- GI50 [34]: 0.13 µM (active)
- GI50 [35]: < 0.0114 µM (active)
- GI50 [36]: 3.61 µM (inactive)
- GI50 [37]: 7.62 µM (inactive)
- GI50 [38]: 0.059 µM (active)
- GI50 [39]: 0.458 µM (active)
- GI50 [40]: 0.184 µM (active)
- GI50 [41]: 0.14 µM (active)
- GI50 [42]: 0.0237 µM (active)
- GI50 [43]: 0.0374 µM (active)
- GI50 [44]: < 0.01 µM (active)
- GI50 [45]: 0.191 µM (active)
- GI50 [46]: < 0.01 µM
- GI50 [47]: < 0.01 µM (active)
- GI50 [48]: 7.13 µM (inactive)
- GI50 [49]: 1.15 µM (inactive)
- GI50 [50]: 0.552 µM (active)
- GI50 [51]: 0.0243 µM (active)
- GI50 [52]: 0.191 µM (active)
- GI50 [53]: < 0.01 µM (active)
- GI50 [54]: 0.522 µM (active)
- GI50 [55]: 0.962 µM (active)
- GI50 [56]: < 0.01 µM (active)
- GI50 [57]: 0.0342 µM (active)
- GI50 [58]: 0.0155 µM (active)
- GI50 [59]: 4.9 µM (inactive)
